Experimental findings from article PMC8920385, “Design, synthesis and biological evaluation of a series of dianilinopyrimidines as EGFR inhibitors” (Journal of Enzyme Inhibition and Medicinal Chemistry, 2022) are described below.

In one series the test system is HepG2 cells. Put plainly: Cytotoxicity evaluation (MTT assay), HepG2. It is filed as cell-based. As to conditions: Homo sapiens, mean ± SD of three replicates.
The next series relates to A549 cells. Briefly: Cytotoxicity evaluation (MTT assay), A549. It is filed as cell-based. Conditions: Homo sapiens, mean ± SD of three replicates.
Another series relates to L02 cells. Put plainly: Cytotoxicity evaluation (MTT assay), L02 normal cells. As to conditions: Homo sapiens, L02, read-out: IC50 L02.
The target in series [1] is T1, wild type EGFR tyrosine kinase (EGFR^wt) (Homo sapiens, UniProt P00533).
T1 construct: purchased PTM Bio; Co., Ltd
T1 sequence (P00533 25-1210): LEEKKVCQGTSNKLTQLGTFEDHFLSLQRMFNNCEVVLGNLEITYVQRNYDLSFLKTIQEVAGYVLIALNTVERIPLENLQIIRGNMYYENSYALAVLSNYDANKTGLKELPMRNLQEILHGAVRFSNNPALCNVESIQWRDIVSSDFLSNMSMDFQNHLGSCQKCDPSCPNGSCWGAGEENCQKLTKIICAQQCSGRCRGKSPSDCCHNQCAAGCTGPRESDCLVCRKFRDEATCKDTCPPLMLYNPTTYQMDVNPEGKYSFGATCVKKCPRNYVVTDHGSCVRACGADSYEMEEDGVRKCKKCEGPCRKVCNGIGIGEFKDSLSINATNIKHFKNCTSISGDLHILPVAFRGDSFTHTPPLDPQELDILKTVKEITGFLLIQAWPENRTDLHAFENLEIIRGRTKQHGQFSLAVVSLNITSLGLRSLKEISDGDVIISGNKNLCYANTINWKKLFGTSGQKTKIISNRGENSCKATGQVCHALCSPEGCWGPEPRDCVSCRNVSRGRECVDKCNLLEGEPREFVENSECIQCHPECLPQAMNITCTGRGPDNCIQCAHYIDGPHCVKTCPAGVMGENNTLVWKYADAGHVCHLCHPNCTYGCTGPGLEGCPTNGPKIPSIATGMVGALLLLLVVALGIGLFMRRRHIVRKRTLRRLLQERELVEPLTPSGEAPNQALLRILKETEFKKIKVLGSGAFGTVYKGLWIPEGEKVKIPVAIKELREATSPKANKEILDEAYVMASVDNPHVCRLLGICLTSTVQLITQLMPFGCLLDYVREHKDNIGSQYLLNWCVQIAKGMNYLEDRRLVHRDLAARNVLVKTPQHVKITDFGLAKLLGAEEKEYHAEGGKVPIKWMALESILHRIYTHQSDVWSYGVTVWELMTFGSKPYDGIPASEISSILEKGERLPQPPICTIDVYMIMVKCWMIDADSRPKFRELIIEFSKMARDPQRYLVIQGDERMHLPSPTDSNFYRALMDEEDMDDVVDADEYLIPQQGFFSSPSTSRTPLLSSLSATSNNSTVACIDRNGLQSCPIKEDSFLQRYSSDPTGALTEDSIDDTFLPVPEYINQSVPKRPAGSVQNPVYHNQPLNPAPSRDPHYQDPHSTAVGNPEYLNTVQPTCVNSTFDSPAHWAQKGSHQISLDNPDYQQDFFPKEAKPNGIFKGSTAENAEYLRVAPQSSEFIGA
Put plainly: In vitro EGFR^wt-TK assay (ELISA). It is filed as biochemical. Conditions: mean ± SD of three replicates; for inhibition at 1 µM: read-out: EGFR^wt-TK inhibition rate; for inhibition at 1 µM / EGFR^wt-TK inhibition rate: 1 μM.

For the next series, the system named is PC-3 cells. Put plainly: Cytotoxicity evaluation (MTT assay), PC-3. Conditions: Homo sapiens, mean ± SD of three replicates. The series is classed as cell-based.

Method for L02 cells: Three tumour cells with high expression of EGFR^wt were used to test the antitumor activity of the compounds including, A549 (Human non-small-cell lung cancer cell line) cells, PC-3 (Human prostate cancer cell line) cells, and HepG2 (Human hepatocellular carcinomas cell line) cells. They were all purchased from the Shanghai Cell Bank of the Chinese Academy of Sciences. L02 (normal human liver cell line) cells were also used to evaluate the cytotoxicity. […] The IC50 values were calculated from the dose − response curve under Graph-Pad Prism.

For the compound `CNC(=O)c1ccsc1Nc1nc(Nc2ccc(Nc3c(NCCO)c(=O)c3=O)cc2)ncc1C(F)(F)F` [6c, 2–(2-{4-[2-(2-Hydroxy-ethylamino)-3,4-dioxo-cyclobut-1-enylamino]-phenylamino}-5-trifluoromethyl-pyrimidin-4-ylamino)-thiophene-3-carboxylic acid methylamide], the melting point was over 250 °C. The same compound yielded an IC50 with HepG2 cells of over 20 µM. In addition, in the series on A549 cells, the IC50 is over 20 µM. In the series with L02 cells, the IC50 is over 40 µM. In series [1], the inhibition at 1 µM worked out at 16.6 ± 0.21%. Besides, the IC50 with PC-3 cells was over 20 µM.
Regarding `CNC(=O)c1ccsc1Nc1nc(Nc2ccc(Nc3c(NC(C)C)c(=O)c3=O)cc2)ncc1C(F)(F)F` [6d, 2-{2-[4-(2-Isopropylamino-3,4-dioxo-cyclobut-1-enylamino)-phenylamino]-5-trifluoromethyl-pyrimidin-4-ylamino}-thiophene-3-carboxylic acid methylamide], the melting point is over 250 °C. For the same compound, the IC50 in the series with HepG2 cells was found to be 14.1 ± 1.28 µM. For the same compound, in the series with A549 cells, the half-maximal inhibitory concentration (IC50) was 10.1 ± 1.96 µM. Also, in the series with L02 cells, the half-maximal inhibitory concentration (IC50) is over 40 µM. The inhibition at 1 µM in series [1] worked out at 29.1 ± 1.03%. Moreover, the IC50 with PC-3 cells is over 20 µM.
As to `CNC(=O)c1ccsc1Nc1nc(Nc2ccc(Nc3c(NC4CCCC4)c(=O)c3=O)cc2)ncc1C(F)(F)F` [6e, 2-{2-[4-(2-Cyclopentylamino-3,4-dioxo-cyclobut-1-enylamino)-phenylamino]-5-trifluoromethyl-pyrimidin-4-ylamino}-thiophene-3-carboxylic acid methylamide], the melting point was over 250 °C. The IC50 in the series with HepG2 cells came to 9 ± 0.78 µM. In the series on A549 cells, this compound returned an IC50 of 7.14 ± 0.92 µM. Moreover, in the series with L02 cells, the IC50 was over 40 µM. In series [1], the “EGFR^wt-TK inhibition rate” value is on record as 53.17 ± 3.05%, the inhibition at 1 µM is over 50% and the IC50 amounted to 0.74 ± 0.1 µM. In the series with PC-3 cells, the IC50 came out at 9.24 ± 0.86 µM.
The compound `CNC(=O)c1ccsc1Nc1nc(Nc2ccc(Nc3c(NC4CCCCC4)c(=O)c3=O)cc2)ncc1C(F)(F)F` [6f, 2-{2-[4-(2-Cyclohexylamino-3,4-dioxo-cyclobut-1-enylamino)-phenylamino]-5-trifluoromethyl-pyrimidin-4-ylamino}-thiophene-3-carboxylic acid methylamide] yielded a melting point of over 250 °C. For the same compound, in the series with HepG2 cells, the IC50 was over 20 µM. This compound also displayed an IC50 with A549 cells of 18.1 ± 2.45 µM. Further, in the series with L02 cells, the IC50 was over 40 µM. Also, the inhibition at 1 µM in series [1] turned out to be 34.1 ± 1.29%. Further, the IC50 in the series on PC-3 cells is over 20 µM.
Turning to `CNC(=O)c1ccsc1Nc1nc(Nc2ccc(Nc3c(NC4CCC(O)CC4)c(=O)c3=O)cc2)ncc1C(F)(F)F` (stereo not shown) [6g, 2-(2-{4-[2–(4-Hydroxy-cyclohexylamino)-3,4-dioxo-cyclobut-1-enylamino]-phenylamino}-5-trifluoromethyl-pyrimidin-4-ylamino)-thiophene-3-carboxylic acid methylamide], the melting point was over 250 °C. In the series on HepG2 cells, this compound came in with an IC50 of over 20 µM. Besides, the IC50 in the series with A549 cells was over 20 µM. In the series with L02 cells, the IC50 was over 40 µM. Besides, the inhibition at 1 µM in series [1] was determined as 9.27 ± 0.25%. In the series with PC-3 cells, this compound showed a half-maximal inhibitory concentration (IC50) of over 20 µM.
For `CNC(=O)c1ccsc1Nc1nc(Nc2ccc(Nc3c(NC4CCN(C)CC4)c(=O)c3=O)cc2)ncc1C(F)(F)F` [6h, 2-(2-{4-[2-(1-Methyl-piperidin-4-ylamino)-3,4-dioxo-cyclobut-1-enylamino]-phenylamino}-5-trifluoromethyl-pyrimidin-4-ylamino)-thiophene-3-carboxylic acid methylamide], the melting point is over 250 °C. Also, the IC50 in the series on HepG2 cells is over 20 µM. Also, the half-maximal inhibitory concentration (IC50) with A549 cells is over 20 µM. Further, the IC50 with L02 cells was over 40 µM. Besides, the inhibition at 1 µM in series [1] was 10.6 ± 0.93%. This compound also gave an IC50 with PC-3 cells of over 20 µM.
Compound `CNC(=O)c1ccsc1Nc1nc(Nc2ccc(Nc3c(NCCNC(=O)OC(C)(C)C)c(=O)c3=O)cc2)ncc1C(F)(F)F` [6i, [2-(2-{4-[4-(3-Methylcarbamoyl-thiophen-2-ylamino)-5-trifluoromethyl-pyrimidin-2-ylamino]-phenylamino}-3,4-dioxo-cyclobut-1-enylamino)-ethyl]-carbamic acid tert-butyl ester] returned a melting point of over 250 °C. This compound displayed an IC50 in the series with HepG2 cells of 5.24 ± 0.51 µM. In the series on A549 cells, this compound returned an IC50 of 3.11 ± 0.48 µM. In addition, the IC50 with L02 cells is over 40 µM. For the same compound, in series [1], the “EGFR^wt-TK inhibition rate” value worked out at 57.37 ± 1.82%, the inhibition at 1 µM is over 50% and the IC50 was found to be 0.66 ± 0.13 µM. In the series with PC-3 cells, this compound showed an IC50 of 5.33 ± 0.47 µM.
`CCC(=O)NCCNc1c(Nc2ccc(Nc3ncc(C(F)(F)F)c(Nc4sccc4C(=O)NC)n3)cc2)c(=O)c1=O` [8a, 2-(2-{4-[3,4-Dioxo-2-(2-propionylamino-ethylamino)-cyclobut-1-enylamino]-phenylamino}-5-trifluoromethyl-pyrimidin-4-ylamino)-thiophene-3-carboxylic acid methylamide]: the melting point was over 250 °C. In addition, in the series with HepG2 cells, the half-inhibitory concentration (IC50) was over 20 µM. In the series with A549 cells, this compound displayed a 50% inhibitory concentration (IC50) of over 20 µM. Also, in the series on L02 cells, the IC50 is over 40 µM. Moreover, the inhibition at 1 µM in series [1] stood at 6.86 ± 0.11%. Besides, in the series on PC-3 cells, the IC50 is over 20 µM.
`CNC(=O)c1ccsc1Nc1nc(Nc2ccc(Nc3c(NCCNC(=O)C(C)C)c(=O)c3=O)cc2)ncc1C(F)(F)F` [8b, 2-(2-{4-[2-(2-Isobutyrylamino-ethylamino)-3,4-dioxo-cyclobut-1-enylamino]-phenylamino}-5-trifluoromethyl-pyrimidin-4-ylamino)-thiophene-3-carboxylic acid methylamide] came in with a melting point of over 250 °C. In the series on HepG2 cells, this compound gave an IC50 of over 20 µM. This compound also showed an IC50 in the series on A549 cells of over 20 µM. For the same compound, the IC50 in the series with L02 cells is over 40 µM. The inhibition at 1 µM in series [1] came to 7.92 ± 0.54%. The IC50 with PC-3 cells is over 20 µM.
Consider `CNC(=O)c1ccsc1Nc1nc(Nc2ccc(Nc3c(NCCNC(=O)C4CCCC4)c(=O)c3=O)cc2)ncc1C(F)(F)F` [8c, 2-[2–(4-{2-[2-(Cyclopentanecarbonyl-amino)-ethylamino]-3,4-dioxo-cyclobut-1-enylamino}-phenylamino)-5-trifluoromethyl-pyrimidin-4-ylamino]-thiophene-3-carboxylic acid methylamide], for which the melting point was over 250 °C. Besides, the midpoint of inhibition with HepG2 cells, the IC50, lay at 9.54 ± 0.91 µM. It took 7.32 ± 0.65 µM to reach half-maximal inhibition in the series with A549 cells (IC50). In addition, the half-maximal inhibitory concentration (IC50) with L02 cells was over 40 µM. The inhibition at 1 µM in series [1] was 28.1 ± 1.27%. Further, the IC50 with PC-3 cells is 9.69 ± 1.13 µM.
`CNC(=O)c1ccsc1Nc1nc(Nc2ccc(Nc3c(NCCNC(=O)C4CCCCC4)c(=O)c3=O)cc2)ncc1C(F)(F)F` [8d, 2-[2-(4-{2-[2-(Cyclohexanecarbonyl-amino)-ethylamino]-3,4-dioxo-cyclobut-1-enylamino}-phenylamino)-5-trifluoromethyl-pyrimidin-4-ylamino]-thiophene-3-carboxylic acid methylamide]: the melting point is over 250 °C. In the series with HepG2 cells, this compound registered an IC50 of 8.28 ± 0.69 µM. Besides, the IC50 with A549 cells was found to be 6.14 ± 0.72 µM. Moreover, the IC50 in the series on L02 cells is over 40 µM. In series [1], the inhibition at 1 µM worked out at 29 ± 1.55%. In the series on PC-3 cells, this compound registered an IC50 of 8.35 ± 0.74 µM.
